# Experiments:
# OVCAR-5 = assay: NCI-60 SRB growth assay; format: cell-based, human
# UACC-62 = assay: NCI-60 SRB growth assay; format: cell-based, human
# MALME-3M = assay: NCI-60 SRB growth assay; format: cell-based, human
# PC-3 = assay: NCI-60 SRB growth assay; format: cell-based, human
# RXF 393 = assay: NCI-60 SRB growth assay; format: cell-based, human
# SF-539 = assay: NCI-60 SRB growth assay; format: cell-based, human
# U251 = assay: NCI-60 SRB growth assay; format: cell-based, human
# NCI-H23 = assay: NCI-60 SRB growth assay; format: cell-based, human
# HCT-15 = assay: NCI-60 SRB growth assay; format: cell-based, human
# A549/ATCC = assay: NCI-60 SRB growth assay; format: cell-based, human
# NCI-H226 = assay: NCI-60 SRB growth assay; format: cell-based, human
# [1] = test system: oligo-1: d(CGCGAATTCGCG)2; assay: UV thermal denaturation; format: binding
# [2] = test system: panel of 60 human cancer cell lines; assay: cells; details: read-out: GI50 concentration range
# BT-549 = assay: NCI-60 SRB growth assay; format: cell-based, human
# M14 = assay: NCI-60 SRB growth assay; format: cell-based, human
# A498 = assay: NCI-60 SRB growth assay; format: cell-based, human
# HEK = assay: MTT cytotoxicity assay; format: cell-based; details: Homo sapiens, HEK293, 48 h
# [3] = test system: oligo-2: d(CGATGTACATCG)2; assay: UV thermal denaturation; format: binding
# HOP-62 = assay: NCI-60 SRB growth assay; format: cell-based, human
# NCI-H522 = assay: NCI-60 SRB growth assay; format: cell-based, human
# LOX IMVI = assay: NCI-60 SRB growth assay; format: cell-based, human
# MDA-MB-468 = assay: NCI-60 SRB growth assay; format: cell-based, human
# OVCAR-3 = assay: NCI-60 SRB growth assay; format: cell-based, human
# EKVX = assay: NCI-60 SRB growth assay; format: cell-based, human
# MOLT-4 = assay: NCI-60 SRB growth assay; format: cell-based, human
# HCC-2998 = assay: NCI-60 SRB growth assay; format: cell-based, human
# KM12 = assay: NCI-60 SRB growth assay; format: cell-based, human
# HS 578T = assay: NCI-60 SRB growth assay; format: cell-based, human; details: HS578T
# 786-0 = assay: NCI-60 SRB growth assay; format: cell-based, human
# CCRF-CEM = assay: NCI-60 SRB growth assay; format: cell-based, human
# SW-620 = assay: NCI-60 SRB growth assay; format: cell-based, human
# HCT-116 = assay: NCI-60 SRB growth assay; format: cell-based, human
smiles,measurement,setting,value
"CCCN1CCN(c2ccc3[nH]c(-c4ccc5[nH]c(-c6ccc(OCC)c(OCC)c6)nc5c4)nc3c2)CC1 [11a, 2-(2-(3,4-Diethoxyphenyl)-1H-benzo[d]imidazol-5-yl)-5-(4-propylpiperazin-1-yl)-1H-benzo[d]imidazole]",GI50,"OVCAR-5; Homo sapiens, OVCAR-5",2090 nM
same,CC50,"OVCAR-5; Homo sapiens, OVCAR-5, read-out: LC50",15900 nM
same,TGI,OVCAR-5; OVCAR-5,5010 nM
same,GI50,"UACC-62; Homo sapiens, UACC-62",400 nM
same,CC50,"UACC-62; Homo sapiens, UACC-62, read-out: LC50",5300 nM
same,TGI,UACC-62; UACC-62,1900 nM
same,GI50,"MALME-3M; Homo sapiens, Malme-3M",80 nM
same,CC50,"MALME-3M; Homo sapiens, Malme-3M, read-out: LC50",3900 nM
same,TGI,MALME-3M; MALME-3M,1200 nM
same,GI50,"PC-3; Homo sapiens, PC-3",380 nM
same,CC50,"PC-3; Homo sapiens, PC-3, read-out: LC50",6120 nM
same,TGI,PC-3; PC-3,1920 nM
same,GI50,"RXF 393; Homo sapiens, RXF 393",260 nM
same,CC50,"RXF 393; Homo sapiens, RXF 393, read-out: LC50",3600 nM
same,TGI,RXF 393; RXF393,900 nM
same,GI50,"SF-539; Homo sapiens, SF-539",790 nM
same,CC50,"SF-539; Homo sapiens, SF-539, read-out: LC50",4800 nM
same,TGI,SF-539; SF-539,2100 nM
same,GI50,"U251; Homo sapiens, U-251",420 nM
same,CC50,"U251; Homo sapiens, U-251, read-out: LC50",4800 nM
same,TGI,U251; U251,1800 nM
same,GI50,"NCI-H23; Homo sapiens, NCI-H23",250 nM
same,CC50,"NCI-H23; Homo sapiens, NCI-H23, read-out: LC50",4240 nM
same,TGI,NCI-H23; NCI–H23,700 nM
same,TGI,HCT-15; HCT-15,18900 nM
same,GI50,"HCT-15; Homo sapiens, HCT-15",2420 nM
same,CC50,"HCT-15; Homo sapiens, HCT-15, read-out: LC50",> 100000 nM
same,TGI,A549/ATCC; A549/ATCC,3020 nM
same,GI50,"A549/ATCC; Homo sapiens, A549",1170 nM
same,GI50,"NCI-H226; Homo sapiens, NCI-H226",800 nM
same,CC50,"NCI-H226; Homo sapiens, NCI-H226, read-out: LC50",37500 nM
same,TGI,NCI-H226; NCI–H226,3500 nM
same,ΔTm,[1]; r = 0.5,3 °C
same,Tm,"[1]; r = 0.5, oligo 2.5 μM",57.7 °C
same,Tm,[1]; r = 1,58.7 °C
same,ΔTm,[1]; r = 1,4 °C
same,Tm,[1]; r = 1.5,60.7 °C
same,ΔTm,[1]; r = 1.5,6 °C
same,Tm,[1]; r = 2.0,62.7 °C
same,ΔTm,[1]; r = 2.0,8 °C
same,GI50,[2],160 to 3600 nM
same,TGI,BT-549; BT-549,2720 nM
same,GI50,"BT-549; Homo sapiens, BT-549",1220 nM
same,CC50,"BT-549; Homo sapiens, BT-549, read-out: LC50",6070 nM
same,GI50,"M14; Homo sapiens, M14",250 nM
same,CC50,"M14; Homo sapiens, M14, read-out: LC50",5000 nM
same,TGI,M14; M14,1500 nM
same,TGI,A498; A498,1790 nM
same,GI50,"A498; Homo sapiens, A498",470 nM
same,CC50,"A498; Homo sapiens, A498, read-out: LC50",4380 nM
same,IC50,HEK,14400 nM
same,Tm,"[3]; r = 0.5, oligo 2.5 μM",57.9 °C
same,Tm,[3]; r = 1,58.9 °C
same,ΔTm,[3]; r = 1,2 °C
same,Tm,[3]; r = 1.5,58.9 °C
same,ΔTm,[3]; r = 1.5,2 °C
same,ΔTm,[3]; r = 2.0,2 °C
same,TGI,HOP-62; HOP-62,5200 nM
same,GI50,"HOP-62; Homo sapiens, HOP-62",1980 nM
same,CC50,"HOP-62; Homo sapiens, HOP-62, read-out: LC50",23400 nM
same,GI50,"NCI-H522; Homo sapiens, NCI-H522",450 nM
same,TGI,NCI-H522; NCI–H522,2110 nM
same,TGI,LOX IMVI,440 nM
same,GI50,LOX IMVI; Homo sapiens,200 nM
same,CC50,"LOX IMVI; Homo sapiens, read-out: LC50",960 nM
same,GI50,"MDA-MB-468; Homo sapiens, MDA-MB-468",430 nM
same,CC50,"MDA-MB-468; Homo sapiens, MDA-MB-468, read-out: LC50",7070 nM
same,TGI,MDA-MB-468; MDA-MB-468,1820 nM
same,GI50,"OVCAR-3; Homo sapiens, OVCAR-3",260 nM
same,CC50,"OVCAR-3; Homo sapiens, OVCAR-3, read-out: LC50",1800 nM
same,TGI,OVCAR-3; OVCAR-3,580 nM
same,TGI,EKVX,13300 nM
same,GI50,EKVX; Homo sapiens,1730 nM
same,CC50,"EKVX; Homo sapiens, read-out: LC50",> 100000 nM
same,GI50,"MOLT-4; Homo sapiens, MOLT-4",590 nM
same,CC50,"MOLT-4; Homo sapiens, MOLT-4, read-out: LC50",> 100000 nM
same,TGI,MOLT-4; MOLT-4,4400 nM
same,TGI,HCC-2998; HCC-2998,2620 nM
same,GI50,"HCC-2998; Homo sapiens, HCC 2998",1240 nM
same,CC50,"HCC-2998; Homo sapiens, HCC 2998, read-out: LC50",5500 nM
same,GI50,"KM12; Homo sapiens, KM12",1260 nM
same,CC50,"KM12; Homo sapiens, KM12, read-out: LC50",6400 nM
same,TGI,KM12; KM12,2800 nM
same,TGI,HS 578T,>100000 nM
same,TGI,786-0; 786–0,2500 nM
same,GI50,"786-0; Homo sapiens, 786-0",1130 nM
same,CC50,"786-0; Homo sapiens, 786-0, read-out: LC50",5540 nM
same,TGI,CCRF-CEM,3600 nM
same,GI50,CCRF-CEM; Homo sapiens,400 nM
same,CC50,"CCRF-CEM; Homo sapiens, read-out: LC50",> 100000 nM
same,GI50,"SW-620; Homo sapiens, SW-620",300 nM
same,CC50,"SW-620; Homo sapiens, SW-620, read-out: LC50",4300 nM
same,TGI,SW-620; SW620,1200 nM
same,TGI,HCT-116; HCT-116,1230 nM
same,GI50,"HCT-116; Homo sapiens, HCT-116",240 nM
same,CC50,"HCT-116; Homo sapiens, HCT-116, read-out: LC50",4700 nM
